In US20250019371A1, “SMALL-MOLECULAR INHIBITORS FOR THE BETA-CATENIN/ B-CELL LYMPHOMA 9 PROTEIN-PROTEIN INTERACTION” (H. LEE MOFFITT CANCER CENTER AND RESEARCH INSTITUTE, INC., priority 2021, published 2025):
Where two headings read alike, the source gives them in different places. Blank lines part the entries; values can stand above or below the molecule they belong to.

Assays:
β-catenin/BCL9 PPI = molecular target: T1, β-catenin/BCL9 PPI (Homo sapiens, UniProt P35222); experiment: AlphaScreen competitive inhibition assay of β-catenin/BCL9 PPI; type: binding; conditions: for Ki: read-out: Ki; for potency relative to compound 12: AlphaScreen Ki compared with 12; for AlphaScreen inhibitory activity in words: SAR comparison
T1 construct: Full-length β-catenin (residues 1-781); host or cells: E. coli BL21 DE3
T1 sequence (P35222 1-781): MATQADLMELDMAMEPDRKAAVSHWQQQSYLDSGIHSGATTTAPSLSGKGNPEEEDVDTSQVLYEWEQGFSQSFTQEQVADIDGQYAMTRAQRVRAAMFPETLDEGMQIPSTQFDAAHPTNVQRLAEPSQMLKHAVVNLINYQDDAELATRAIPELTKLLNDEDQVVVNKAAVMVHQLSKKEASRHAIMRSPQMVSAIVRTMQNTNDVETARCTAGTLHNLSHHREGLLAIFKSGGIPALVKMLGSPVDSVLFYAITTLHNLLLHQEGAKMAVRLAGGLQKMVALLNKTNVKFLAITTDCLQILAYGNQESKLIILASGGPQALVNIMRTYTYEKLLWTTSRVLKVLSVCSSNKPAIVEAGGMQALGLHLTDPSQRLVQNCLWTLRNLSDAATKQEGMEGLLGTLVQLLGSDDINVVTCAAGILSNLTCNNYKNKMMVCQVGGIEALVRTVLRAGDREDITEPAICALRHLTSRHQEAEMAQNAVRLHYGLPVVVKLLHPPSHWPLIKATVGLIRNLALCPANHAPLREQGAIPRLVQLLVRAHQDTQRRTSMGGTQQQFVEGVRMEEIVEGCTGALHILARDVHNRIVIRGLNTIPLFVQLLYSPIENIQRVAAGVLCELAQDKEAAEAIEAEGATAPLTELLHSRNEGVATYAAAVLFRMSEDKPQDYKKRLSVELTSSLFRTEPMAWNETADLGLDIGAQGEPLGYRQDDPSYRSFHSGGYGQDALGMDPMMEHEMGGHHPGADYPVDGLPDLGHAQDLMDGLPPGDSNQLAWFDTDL
Description: AlphaScreen Assays of β-Catenin and BCL9 Interaction. Experiments were performed in white opaque 384-well plates from PerkinElmer (Waltham, MA), and the samples were read on a Biotek Synergy 2 plate reader (Winooski, VT) with excitation at 680 nm and emission at 570 nm. The standard AlphaScreen protocol was used with a sensitivity setting of 200. All dilutions were made in 1x assay buffer containing 25 mM Hepes (pH 7.4), 100 mM NaCl, 0.01% Triton X-100 and 0.1% BSA to minimize nonspecific interactions.
For the β-catenin/BCL9 assay, 5 nM biotinylated BCL9, and 50 nM His6-tagged 8-catenin were incubated in assay buffer for 30 min. Different concentrations of the tested inhibitor were added and incubated in 20 μL assay buffer for another 1 h. All of the assay plates were covered and gently mixed on an orbital shaker. Donor and acceptor beads were then added to the plates to a final concentration of 10 μg/mL in 25 μL assay buffer. The mixture was incubated for 1 h before detection. The IC50 value was determined by nonlinear least-square analysis of GraphPad Prism 8.0. […] All of the experiments were performed in triplicate and carried out in the presence of 1% DMSO for small-molecule inhibitors. Each compound was assayed at least by three independent experiments. The results were expressed as mean±standard deviation.

[1] = cell-based experiments, earlier work, cited from earlier work
[2] = first Table 3, AlphaScreen, inhibitors 31-35
[3] = Table 1, AlphaScreen, inhibitors 16-26
[4] = Table 1, AlphaScreen, inhibitors 16-26, Ki derived from IC50
[5] = Table 2, AlphaScreen, inhibitors 27-30 (R- and S-isomers), preliminary

IC50 (β-catenin/BCL9 PPI; [2]): ≤ 10 µM
Ki (β-catenin/BCL9 PPI; [2]): ≤ 10 µM
SMILES: CC(C)(Oc1cccc(N2CCC[C@H](C(=O)N(Cc3ccc(-c4cccs4)cc3)C3CC3)C2)c1)C(=O)NS(=O)(=O)c1cccc(C#N)c1 [Compound 35]

IC50 (β-catenin/BCL9 PPI; [2]): ~200 µM
Ki (β-catenin/BCL9 PPI; [2]): ~168 µM
SMILES: CC(C)(Oc1cccc(N2CCCC(C(=O)N(Cc3ccc(-c4cccs4)cc3)C3CC3)C2)c1)C(=O)NS(=O)(=O)C(F)(F)F (stereo not drawn) [Compound 31]

potency relative to compound 12 (β-catenin/BCL9 PPI): two-fold more potent than 12
AlphaScreen inhibitory activity in words (β-catenin/BCL9 PPI): improved activities
IC50 (β-catenin/BCL9 PPI; [3]): ≤ 10 µM
Ki (β-catenin/BCL9 PPI; [4]): ≤ 10 µM
SMILES: CC(C)(Oc1cccc(N2CCCC(C(=O)N(Cc3ccc(-c4cccs4)cc3)C3CC3)C2)c1)C(=O)NS(=O)(=O)c1ccccc1 (stereo not drawn) [Compound 21, N-Cyclopropyl-1-(3-((2-methyl-1-oxo-1-(phenylsulfonamido)propan-2-yl)oxy)phenyl)-N-(4-(thiophen-2-yl)benzyl) piperidine-3-carboxamide]

SMILES: CC(C)c1ccc(COC(=O)N2CCC[C@@H](c3cccc(OC(C)(C)C(=O)O)c3)C2)cc1 [CP868388]
cellular activity [1]: inactive in cell-based experiments
cellular activity ([1]; listed as 1): did not show any cellular activity

IC50 (β-catenin/BCL9 PPI; [3]): ≤ 10 µM
Ki (β-catenin/BCL9 PPI; [4]): ≤ 10 µM
SMILES: CC(C)(Oc1cccc(N2CCCC(C(=O)N(Cc3ccc(-c4cccs4)cc3)C3CC3)C2)c1)C(=O)NS(=O)(=O)c1cccc(C#N)c1 (stereo not drawn) [Compound 25, 1-(3-((1-((3-Cyanophenyl)sulfonamido)-2-methyl-1-oxopropan-2-yl)oxy)phenyl)-N-cyclopropyl-N-(4-(thiophen-2-yl)benzyl) piperidine-3-carboxamide]

AlphaScreen inhibitory activity in words (β-catenin/BCL9 PPI): significant potency loss
IC50 (β-catenin/BCL9 PPI; [3]): > 100 µM
Ki (β-catenin/BCL9 PPI; [4]): > 90 µM
SMILES: COC(=O)C(C)(C)Oc1cccc(N2CCCC(C(=O)N(Cc3ccc(-c4cccs4)cc3)C3CC3)C2)c1 (stereo not drawn) [Compound 16, Methyl 2-(3-(3-(cyclopropyl(4-(thiophen-2-yl)benzyl)carbamoyl)piperidin-1-yl)phenoxy)-2-methylpropanoate]

IC50 (β-catenin/BCL9 PPI; [3]): ≤ 10 µM
Ki (β-catenin/BCL9 PPI; [4]): ≤ 5 µM
SMILES: COc1cccc(S(=O)(=O)NC(=O)C(C)(C)Oc2cccc(N3CCCC(C(=O)N(Cc4ccc(-c5cccs5)cc4)C4CC4)C3)c2)c1 (stereo not drawn) [Compound 22, N-Cyclopropyl-1-(3-((1-((3-methoxyphenyl)sulfonamido)-2-methyl-1-oxopropan-2-yl)oxy)phenyl)-N-(4-(thiophen-2-yl)benzyl) piperidine-3-carboxamide]

IC50 (β-catenin/BCL9 PPI; [3]): ≤ 5 µM
Ki (β-catenin/BCL9 PPI; [4]): ≤ 5 µM
SMILES: CC(C)(Oc1cccc(N2CCCC(C(=O)N(Cc3ccc(-c4cccs4)cc3)C3CC3)C2)c1)C(=O)NS(=O)(=O)c1ccc(C#N)cc1 (stereo not drawn) [Compound 26, 1-(3-((1-((4-Cyanophenyl)sulfonamido)-2-methyl-1-oxopropan-2-yl)oxy)phenyl)-N-cyclopropyl-N-(4-(thiophen-2-yl)benzyl) piperidine-3-carboxamide]

AlphaScreen inhibitory activity in words (β-catenin/BCL9 PPI): improved activities
IC50 (β-catenin/BCL9 PPI; [3]): ≤ 30 µM
Ki (β-catenin/BCL9 PPI; [4]): ≤ 30 µM
SMILES: CC(C)(Oc1cccc(N2CCCC(C(=O)N(Cc3ccc(-c4cccs4)cc3)C3CC3)C2)c1)C(=O)NS(=O)(=O)C1CC1 (stereo not drawn) [Compound 19, 1-(3-((1-(Cyclopropanesulfonamido)-2-methyl-1-oxopropan-2-yl)oxy)phenyl)-N-cyclopropyl-N-(4-(thiophen-2-yl)benzyl) piperidine-3-carboxamide]

IC50 (β-catenin/BCL9 PPI; [5]): ≤ 10 µM
Ki (β-catenin/BCL9 PPI; [5]): ≤ 5 µM
SMILES: COc1cccc(S(=O)(=O)NC(=O)C(C)(C)Oc2cccc(N3CCC[C@@H](C(=O)N(Cc4ccc(-c5cccs5)cc4)C4CC4)C3)c2)c1 [Compound 27, (R)—N-Cyclopropyl-1-(3-((1-((3-methoxyphenyl)sulfonamido)-2-methyl-1-oxopropan-2-yl)oxy)phenyl)-N-(4-(thiophen-2-yl)benzyl) piperidine-3-carboxamide]

IC50 (β-catenin/BCL9 PPI; [2]): ≤ 30 µM
Ki (β-catenin/BCL9 PPI; [2]): ≤ 30 µM
SMILES: COc1ccc(S(=O)(=O)NC(=O)C(C)(C)Oc2cccc(N3CCC[C@H](C(=O)N(Cc4ccc(-c5cccs5)cc4)C4CC4)C3)c2)cc1 [Compound 34]

potency relative to compound 12 (β-catenin/BCL9 PPI): two-fold less potent than 12
IC50 (β-catenin/BCL9 PPI; [3]): ≤ 30 µM
Ki (β-catenin/BCL9 PPI; [4]): ≤ 30 µM
SMILES: CC(C)(Oc1cccc(N2CCCC(C(=O)N(Cc3ccc(-c4cccs4)cc3)C3CC3)C2)c1)C(=O)NS(C)(=O)=O (stereo not drawn) [Compound 18, N-Cyclopropyl-1-(3-((2-methyl-1-(methylsulfonamido)-1-oxopropan-2-yl)oxy)phenyl)-N-(4-(thiophen-2-yl)benzyl) piperidine-3-carboxamide]

AlphaScreen inhibitory activity in words (β-catenin/BCL9 PPI): improved activities
IC50 (β-catenin/BCL9 PPI; [3]): ≤ 30 µM
Ki (β-catenin/BCL9 PPI; [4]): ≤ 30 µM
SMILES: CC(C)S(=O)(=O)NC(=O)C(C)(C)Oc1cccc(N2CCCC(C(=O)N(Cc3ccc(-c4cccs4)cc3)C3CC3)C2)c1 (stereo not drawn) [Compound 20, N-Cyclopropyl-1-(3-((2-methyl-1-((1-methylethyl)sulfonamido)-1-oxopropan-2-yl)oxy)phenyl)-N-(4-(thiophen-2-yl)benzyl) piperidine-3-carboxamide]

IC50 (β-catenin/BCL9 PPI; [2]): ≤ 30 µM
Ki (β-catenin/BCL9 PPI; [2]): ≤ 30 µM
SMILES: CC(C)(Oc1cccc(N2CCC[C@@H](C(=O)N(Cc3ccc(-c4cccs4)cc3)C3CC3)C2)c1)C(=O)NS(=O)(=O)C1CC1 [Compound 32]

IC50 (β-catenin/BCL9 PPI; [3]): ≤ 10 µM
Ki (β-catenin/BCL9 PPI; [4]): ≤ 10 µM
SMILES: CC(C)(Oc1cccc(N2CCCC(C(=O)N(Cc3ccc(-c4cccs4)cc3)C3CC3)C2)c1)C(=O)NS(=O)(=O)c1cccc(O)c1 (stereo not drawn) [Compound 24, N-Cyclopropyl-1-(3-((1-((3-hydroxyphenyl)sulfonamido)-2-methyl-1-oxopropan-2-yl)oxy)phenyl)-N-(4-(thiophen-2-yl)benzyl) piperidine-3-carboxamide]

IC50 (β-catenin/BCL9 PPI; [3]): ≤ 10 µM
Ki (β-catenin/BCL9 PPI; [4]): ≤ 5 µM
SMILES: COc1ccc(S(=O)(=O)NC(=O)C(C)(C)Oc2cccc(N3CCCC(C(=O)N(Cc4ccc(-c5cccs5)cc4)C4CC4)C3)c2)cc1 (stereo not drawn) [Compound 23, N-Cyclopropyl-1-(3-((1-((4-methoxyphenyl)sulfonamido)-2-methyl-1-oxopropan-2-yl)oxy)phenyl)-N-(4-(thiophen-2-yl)benzyl) piperidine-3-carboxamide]

IC50 (β-catenin/BCL9 PPI; [5]): ≤ 5 µM
Ki (β-catenin/BCL9 PPI; [5]): ≤ 5 µM
SMILES: CC(C)(Oc1cccc(N2CCC[C@@H](C(=O)N(Cc3ccc(-c4cccs4)cc3)C3CC3)C2)c1)C(=O)NS(=O)(=O)c1ccc(C#N)cc1 [Compound 29, (R)-1-(3-((1-((4-Cyanophenyl)sulfonamido)-2-methyl-1-oxopropan-2-yl)oxy)phenyl)-N-cyclopropyl-N-(4-(thiophen-2-yl)benzyl) piperidine-3-carboxamide]

IC50 (β-catenin/BCL9 PPI; [2]): ≤ 30 µM
Ki (β-catenin/BCL9 PPI; [2]): ≤ 30 µM
SMILES: CC(C)(Oc1cccc(N2CCC[C@H](C(=O)N(Cc3ccc(-c4cccs4)cc3)C3CC3)C2)c1)C(=O)NS(=O)(=O)C1CC1 [Compound 33]
